Laboratory results: US20090312521A1 (priority 2004, published 2009)
Converted amounts (≈) assume the structure as drawn. Non-standard residues stand in square brackets, D forms with d. Residues, ends and D or L forms follow the SMILES beside them. βAla = NCCC(=O)O

Key:
[1] = tested on: Serratia marcescens; experiment: Additional antimicrobial test (MIC); assay type: cell-based; details: Gram −, NB, 22 ° C.
[2] = tested on: Erwinia herbicola
[3] = tested on: Erwinia chrysanthemi
[4] = tested on: Enterobacter aerogenes
[5] = tested on: Erwinia carotovora atroseptica; experiment: Additional antimicrobial test (MIC); assay type: cell-based; details: Gram −, NB/BHI, 28/37 ° C.

SMILES	MIC [1]	MIC [2]	MIC [3]	MIC [4]	MIC [5]
CC[C@H](C)[C@H](NC(=O)[C@@H]1CCCN1C(=O)[C@H](CCCNC(=N)N)NC(=O)[C@@H]1CCCN1C(=O)[C@H](Cc1c[nH]cn1)NC(=O)[C@H](CO)NC(=O)[C@@H](NC(=O)[C@@H]1CCCN1C(=O)[C@H](CCCNC(=N)N)NC(=O)[C@@H]1CCCN1C(=O)[C@@H](NC(=O)[C@H](Cc1ccc(O)cc1)NC(=O)[C@@H]1CCCN1C(=O)[C@H](CCCNC(=N)N)NC(=O)[C@@H]1CCCN1C(=O)[C@H](CCCCN)NC(=O)CN)[C@@H](C)O)[C@@H](C)O)C(=O)N[C@@H](CCCNC(=N)N)C(=O)N[C@H](C(=O)O)C(C)C [Peptide 4, GKPRP YTPRP TSHPR PIRV] (H-GKPRPYTPRPTSHPRPIRV-OH; N-terminus assumed)	NI at ≦100 μM	6.75 µM (≈ 14.9 µg/mL)	50 µM (≈ 111 µg/mL)	100 µM (≈ 221 µg/mL)	NI at ≦100 μM
CC[C@H](C)[C@H](NC(=O)[C@@H]1CCCN1C(=O)[C@H](CCCNC(=N)N)NC(=O)[C@@H]1CCCN1C(=O)[C@H](Cc1c[nH]cn1)NC(=O)[C@H](CO)NC(=O)[C@@H](NC(=O)[C@@H]1CCCN1C(=O)[C@H](CCCNC(=N)N)NC(=O)[C@@H]1CCCN1C(=O)[C@@H](NC(=O)[C@H](Cc1ccc(O)cc1)NC(=O)[C@@H]1CCCN1C(=O)[C@H](CCCNC(=N)N)NC(=O)[C@@H]1CCCN1C(=O)[C@H](CCCCN)NC(=O)CCN)[C@@H](C)O)[C@@H](C)O)C(=O)N[C@@H](CCCNC(=N)N)C(=O)N[C@H](C(=O)O)C(C)C [Peptide 14, βAlaKPRP YTPRP TSHPR PIRV] (H-[βAla]KPRPYTPRPTSHPRPIRV-OH; N-terminus assumed)	NI at ≦100 μM	6.75 µM (≈ 15 µg/mL)	100 µM (≈ 223 µg/mL)	100 µM (≈ 223 µg/mL)	NI at ≦100 μM
